Measured values as given in the supplement of paper PMC10307832.

Experiments:
Assay in all cases: relative viability (nuclei count vs DMSO), 5 days (fraction); higher = more cells survive
CUDC-101 + Lapatinib = compound: C#Cc1cccc(Nc2ncnc3cc(OC)c(OCCCCCCC(=O)NO)cc23)c1 [CUDC-101] + CS(=O)(=O)CCNCc1ccc(-c2ccc3ncnc(Nc4ccc(OCc5cccc(F)c5)c(Cl)c4)c3c2)o1 [Lapatinib] (partner 2 µM)
Procedure, shortened: (§1)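 Lung cancer cell lines were seeded in 1536-well plates and dosed by pin tool the next day, with either a single drug or a fixed anchor-drug dose combined with five library-drug doses (not always all listed) spaced in √10 steps. Five days later, one step fixed the cells and stained their nuclei (final 0.05% Triton X-100, 1% formaldehyde, 1 ug/ml Hoechst), and nuclei were counted on 4× images. Relative viability is the nuclei count in treated wells divided by the count in vehicle wells, and each value is the median of duplicate plates.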

NVP-TAE684 + OSI-027 = compound: COc1cc(N2CCC(N3CCN(C)CC3)CC2)ccc1Nc1ncc(Cl)c(Nc2ccccc2S(=O)(=O)C(C)C)n1 [NVP-TAE684] + COc1cccc2cc(-c3nc([C@H]4CC[C@H](C(=O)O)CC4)n4ncnc(N)c34)[nH]c12 [OSI-027] (partner 0.5 µM)
Procedure, shortened: as §1

[1] = compound: C1=CC=C2C(=C1)N=C(S2)C(C#N)C3=NC(=NC=C3)NCCC4=CN=CC=C4 + CC(C)C[C@H](NC(=O)[C@H](Cc1ccccc1)NC(=O)c1cnccn1)B(O)O [Bortezomib] (partner 0.002 µM)
Procedure, shortened: as §1

NVP-TAE684 + Palbociclib = compound: COc1cc(N2CCC(N3CCN(C)CC3)CC2)ccc1Nc1ncc(Cl)c(Nc2ccccc2S(=O)(=O)C(C)C)n1 [NVP-TAE684] + CC(=O)c1c(C)c2cnc(Nc3ccc(N4CCNCC4)cn3)nc2n(C2CCCC2)c1=O [Palbociclib] (partner 0.5 µM)
Procedure, shortened: as §1

Cell Line | relative viability (CUDC-101 + Lapatinib; first compound 0.01 µM) | relative viability (CUDC-101 + Lapatinib; first compound 0.03162 µM) | relative viability (CUDC-101 + Lapatinib; first compound 0.1 µM) | relative viability (CUDC-101 + Lapatinib; first compound 0.3162 µM) | relative viability (CUDC-101 + Lapatinib; first compound 1 µM) | relative viability (NVP-TAE684 + OSI-027; first compound 0.2 µM) | relative viability (NVP-TAE684 + OSI-027; first compound 0.6325 µM) | relative viability (NVP-TAE684 + OSI-027; first compound 2 µM) | relative viability ([1]; first compound 0.005 µM) | relative viability ([1]; first compound 0.01581 µM) | relative viability ([1]; first compound 0.05 µM) | relative viability ([1]; first compound 0.1581 µM) | relative viability ([1]; first compound 0.5 µM) | relative viability (NVP-TAE684 + Palbociclib; first compound 0.2 µM) | relative viability (NVP-TAE684 + Palbociclib; first compound 0.6325 µM) | relative viability (NVP-TAE684 + Palbociclib; first compound 2 µM)
NCI-H2009 | 0.924 | 1 | 1.07 | 0.925 | 0.87 | 0.603 | 0.449 | 0.302 | 0.936 | 0.906 | 1.03 | 1.08 | 0.993 | 0.2 | 0.183 | 0.203
NCI-H2023 | 0.991 | 0.813 | 1.04 | 0.936 | 0.402 | 0.412 | 0.258 | 0.101 | 0.893 | 0.956 | 0.942 | 1.14 | 1.02 | 0.291 | 0.358 | 0.116
NCI-H2085 | 0.817 | 0.686 | 0.826 | 0.752 | 0.502 | 0.777 | 0.739 | 0.57 | 0.861 | 1.05 | 0.781 | 1.24 | 0.94 | 0.463 | 0.512 | 0.478
NCI-H2087 | 0.986 | 1.37 | 1.04 | 1.04 | 0.761 | 0.538 | 0.438 | 0.354 | 0.567 | 0.809 | 0.786 | 0.834 | 0.512 | 0.206 | 0.22 | 0.248
NCI-H2126 | 0.764 | 0.785 | 0.758 | 0.803 | 0.635 | 0.603 | 0.631 | 0.493 | 1.07 | 1.15 | 1.06 | 1.16 | 1.11 | 0.34 | 0.329 | 0.327
NCI-H2228 | 1.06 | 1.49 | 1.12 | 0.977 | 0.412 | 0.247 | 0.137 | 0.16 | 0.828 | 1.09 | 1.16 | 1.1 | 0.997 | 0.44 | 0.253 | 0.279
NCI-H2347 | 1.08 | 0.918 | 1.03 | 1.05 | 0.91 | 0.403 | 0.368 | 0.301 | 1.12 | 1.07 |  | 1.13 | 0.962 | 0.449 | 0.453 | 0.359
NCI-H2405 | 1.25 | 1.05 | 1.19 | 1.27 | 0.917 | 0.564 | 0.613 | 0.261 | 1.04 | 0.965 | 0.982 |  | 0.998 | 0.524 | 0.525 | 0.337
NCI-H3122 | 1.07 | 0.984 | 0.882 | 1.02 | 1.01 | 0.173 | 0.127 | 0.154 | 0.877 | 1.05 | 0.958 | 1.05 | 1.07 | 0.103 | 0.0833 | 0.0801
PC-3 [JPC-3] | 0.419 | 0.462 | 0.443 | 0.364 | 0.32 | 0.686 | 0.759 |  | 0.527 | 0.854 | 0.826 | 0.923 | 0.81 | 0.53 | 0.521 | 0.422
PC-14 | 0.328 | 0.282 | 0.315 | 0.321 | 0.171 | 0.699 | 0.644 | 0.185 | 0.665 | 1.12 | 0.9 | 0.965 | 0.679 | 0.434 | 0.398 | 0.0888
RERF-LC-KJ | 0.893 | 0.905 | 0.841 | 0.826 | 0.698 | 0.514 | 0.448 | 0.306 | 1.02 | 1.12 | 0.971 | 1.16 | 0.905 | 1.14 | 1.11 | 0.907
SK-LU-1 | 1.01 | 0.922 | 0.712 | 0.844 | 0.446 | 0.31 | 0.37 | 0.181 | 0.871 |  | 0.998 | 1.42 | 1.23 | 0.352 | 0.388 | 0.333
SW 1573 | 1.05 | 1.15 | 1.23 | 1.2 | 0.813 | 0.741 | 0.455 | 0.226 | 0.659 | 1.26 |  | 1.1 | 0.936 | 0.414 | 0.294 | 0.169
